Reference: publication PMC8227162 (Molecules, 2021)
Entries after “also recorded” stand apart in the source; their conditions may differ. Structures can show the parent of a compound that is named as a salt.

Assays:
[1] = tested on: MDA-MB-468 cells; assay: SRB cytotoxicity assay, MDA-MB-468 cells; type: cell-based; details: Homo sapiens, 48 h incubation (Figure 3 legend: 72 h)
Experimental: (§1) MDA-MB-231, MDA-MB-468, 4T1, and MCF7 cell lines were purchased from American Type Culture Collection (ATCC) (Manassas, VA, USA). RPMI medium supplemented with 5% fetal bovine serum (FBS) was used to culture the cell lines while being maintained in a humidified atmosphere at 37 °C, 5% CO2.
(§2) Cytotoxicity was assessed after 48 h incubation using sulforhodamine B (SRB) assay as described previously. Cells were fixed using 10% trichloroacetic acid and stained with SRB. The cytotoxicity experiments were performed in triplicate (n = 3). The 50% growth inhibition (IC50) was then assessed by using SRB assay after 48 h incubation. Data are represented as the mean ± SD of three independent experiments of each cell line.

[2] = tested on: 4T1 tumors; assay: In vivo antitumor effects in 4T1 tumor-bearing Balb/c mice; details: 3 mg/kg (TFA equivalent) IV, 9-day treatment
Experimental: Female Balb/c mice (6–12 weeks old, mean weight = 20–25 g) were supplied by the Laboratory Animal Care Facility of the Arabian Gulf University (AGU), Bahrain. […] All animal experiments were performed based on the rules and regulations of the Arabian Gulf University Animal Care Policy and approved by the Research and Ethics Committee, REC Approval No: G-E001-PI-12/16.
To propagate the tumor, female Balb/c mice (n = 3) were injected with one million 4T1 mammary carcinoma cells bilaterally (right and left side) on the flanks. The tumor was then collected and cut down into small pieces with an average size of 1–3 mm^3 in sterile PBS to sustain tumor viability. Following this, 5 mice of each group were shaved, anesthetized, and inoculated with one small piece of the 4T1 tumor tissue subcutaneously. […] The first day of drug administration was set as Day 0. Tumor volume was measured by a manual caliber, and the volume was estimated by using the formula:V (mm^3) = ((transverse section (W)^2 × longitudinal cross section (L))/2)
Tumor volumes were normalized by using the initial tumor volume and represented as the mean ± standard error of the mean (SEM). Additionally, the body weight of mice was measured every day and normalized daily for 9 days.

[3] = tested on: MDA-MB-231, MDA-MB-468, 4T1, and MCF7 cells; assay: SRB cytotoxicity assay, all four breast cancer cell lines; type: cell-based; details: over the four breast cancer cell lines; read-out: IC50 span over all treatments
Experimental: as §1, §2

[4] = tested on: 4T1 cells; assay: SRB cytotoxicity assay, 4T1 cells; type: cell-based, murine; details: Mus musculus, 48 h incubation (Figure 3 legend: 72 h)
Experimental: as §1, §2

[5] = tested on: MDA-MB-231 cells; assay: SRB cytotoxicity assay, MDA-MB-231 cells; type: cell-based; details: Homo sapiens, 48 h incubation (Figure 3 legend: 72 h)
Experimental: as §1, §2

[6] = tested on: murine bone marrow cells; parameters: method as in PMID 12110316; details: cited from earlier work
[7] = tested on: MCF7 cells; assay: SRB cytotoxicity assay, MCF7 cells; type: cell-based; details: Homo sapiens, 48 h incubation (Figure 3 legend: 72 h)
Experimental: as §1, §2

In the case of `COc1cc2cc(C(=O)N3CC(CCl)c4c3cc(O)c3ccoc43)[nH]c2c(OC)c1OC` (stereo not shown) [TFA, tafuramycin A], the IC50 [1] is reported as 18.3 nM, the Body weight changes [2] is reported as “not associated with any statistically significant weight loss; also recorded: no significant weight loss” and the IC50 [3] is reported as 4.55 to 20.2 nM. The IC50 [4] was 5.9 nM, the IC50 [5] was 4.6 nM and the “Toxicity against murine bone marrow cells” value [6] was “only mild toxicity”. The IC50 [7] was 4.55 nM.
